# DBAASP
# Assays:
# Test in all cases: ≥ marks a high value that may be exact or a test limit, other limits are often not marked, values filed in µg/mL are converted to µM
# [1] = test system: Bacillus subtilis ATCC 6051
# [2] = test system: Aspergillus fumigatus
# [3] = test system: Candida albicans
# [4] = test system: Staphylococcus aureus NCTC 8325-4
# [5] = test system: Klebsiella pneumoniae
# [6] = test system: Pseudomonas aeruginosa PAO1
# [7] = test system: Escherichia coli K-12
# [8] = test system: Staphylococcus aureus ATCC 6538P
# [9] = test system: Staphylococcus aureus
# [10] = test system: Escherichia coli JM109
# [11] = test system: Pseudomonas aeruginosa ATCC 27853
# [12] = test system: Bacillus subtilis
# [13] = test system: Escherichia coli
# [14] = test system: Salmonella enterica subsp. enterica serovar Typhimurium ATCC 14028
# [15] = test system: Klebsiella pneumoniae ATCC 13883
# [16] = test system: Streptococcus pyogenes ATCC 19615
# [17] = test system: Enterococcus faecalis ATCC 29212
# [18] = test system: Staphylococcus aureus ATCC 25923
# [19] = test system: Staphylococcus aureus USA 300 LAC
# [20] = test system: Staphylococcus aureus USA 300
# [21] = test system: Enterobacter cloacae CGMCC 1.58
# [22] = test system: Bacillus cereus AS1.126
# [23] = test system: Enterococcus faecium CGMCC 1.2334
# [24] = test system: Klebsiella aerogenes CGMCC 1.876
# [25] = test system: Lactococcus lactis AS1.1690
# [26] = test system: Pseudomonas aeruginosa CGMCC 1.860
# [27] = test system: Escherichia coli AS1.349
# [28] = test system: Enterococcus faecalis CGMCC 1.595
# [29] = test system: Proteus mirabilis CICC 22931
# [30] = test system: Acinetobacter baumannii CICC 22934
# [31] = test system: Staphylococcus aureus AS1.72
# [32] = test system: Klebsiella pneumoniae subsp. pneumoniae CGMCC 1.176
# [33] = test system: Escherichia coli ATCC 25922
compound,measurement,setting,value
CC(C)C[C@H](NC(=O)[C@H](C)N)C(=O)N[C@@H](Cc1c[nH]c2ccccc12)C(=O)N[C@@H](Cc1cnc[nH]1)C(=O)N[C@@H](Cc1cnc[nH]1)C(=O)N[C@@H](CC(C)C)C(=O)N[C@@H](CC(C)C)C(=O)N[C@@H](Cc1cnc[nH]1)C(=O)N[C@@H](Cc1cnc[nH]1)C(=O)N[C@@H](CC(C)C)C(=O)N[C@@H](CC(C)C)C(=O)N[C@@H](Cc1cnc[nH]1)C(=O)N[C@@H](CO)C(=O)N[C@@H](C)C(=O)N[C@@H](Cc1cnc[nH]1)C(=O)N[C@@H](Cc1cnc[nH]1)C(=O)N[C@@H](CC(C)C)C(=O)NCC(N)=O [ALWHHLLHHLLHSAHHLG],MIC,[1],1.88 µM
N[C@@H](Cc1ccccc1)C(=O)N1CCC[C@H]1C(=O)N[C@@H](Cc1c[nH]c2ccccc12)C(=O)N[C@@H](Cc1c[nH]c2ccccc12)C(=O)N[C@@H](Cc1c[nH]c2ccccc12)C(=O)N1CCC[C@H]1C(=O)N[C@@H](Cc1ccccc1)C(=O)O [FPWWWPF],MIC,[2],≥ 469 µM
same,MIC,[3],> 939 µM
CC[C@H](C)[C@H](N)C(=O)N[C@@H](CCCCN)C(=O)N[C@@H](CCCCN)C(=O)N[C@H](C(=O)N[C@H](C(=O)N[C@@H](CCCCN)C(=O)N[C@@H](CCCCN)C(=O)N[C@H](C(N)=O)[C@@H](C)CC)[C@@H](C)CC)[C@@H](C)CC [IKKIIKKI],MIC,[4],≥ 500 µM
same,MIC,[5],> 500 µM
same,MIC,[6],> 500 µM
same,MIC,[7],≥ 500 µM
CC(C)C[C@H](NC(=O)[C@H](CC(C)C)NC(=O)[C@H](CCCCN)NC(=O)[C@H](CC(C)C)NC(=O)[C@H](CC(C)C)NC(=O)[C@H](CCCCN)NC(=O)[C@H](CCCCN)NC(=O)[C@H](CC(C)C)NC(=O)[C@@H](N)CC(C)C)C(N)=O [LLKKLLKLL],MIC,[8],1.56 µM
same,MIC,[6],1.56 µM
same,MIC,[7],1.56 µM
same,MIC,[1],1.56 µM
CC[C@H](C)[C@H](NC(=O)[C@H](C)NC(=O)[C@H](CC(C)C)NC(=O)[C@H](CCCN=C(N)N)NC(=O)[C@H](Cc1cnc[nH]1)NC(=O)[C@H](C)NC(=O)[C@H](C)NC(=O)[C@H](CCCN=C(N)N)NC(=O)[C@@H](N)CC(C)C)C(=O)NCC(=O)N[C@@H](CCCN=C(N)N)C(=O)N[C@@H](CCCN=C(N)N)C(N)=O [LRAAHRLAIGRR],MIC,[9],46.1 µM
same,MIC,[8],4.32 µM
same,MIC,[10],11.5 µM
CC(C)C[C@H](N)C(=O)N[C@@H](Cc1ccc(O)cc1)C(=O)N[C@@H](CCCN=C(N)N)C(=O)N[C@@H](CCCN=C(N)N)C(=O)N[C@@H](CCCN=C(N)N)C(=O)N[C@@H](Cc1ccccc1)C(=O)N[C@H](C(=O)N[C@H](C(=O)NCC(=O)N[C@@H](CCCN=C(N)N)C(N)=O)C(C)C)C(C)C [LYRRRFVVGR],MIC,[11],200 µM
same,MIC,[12],≥ 50 µM
same,MIC,[13],50 µM
same,MIC,[14],200 µM
same,MIC,[15],≥ 200 µM
same,MIC,[16],≥ 50 µM
same,MIC,[17],25 µM
same,MIC,[18],25 µM
CC[C@H](C)[C@H](NC(=O)[C@H](CC(=O)O)NC(=O)[C@H](Cc1c[nH]c2ccccc12)NC(=O)[C@H](CC(C)C)NC(=O)[C@@H](N)CCCN=C(N)N)C(=O)N[C@H](C(=O)N[C@@H](CCCN=C(N)N)C(=O)N[C@@H](CCCN=C(N)N)C(=O)N[C@@H](Cc1c[nH]c2ccccc12)C(=O)N[C@H](C(=O)NCC(=O)N[C@@H](Cc1c[nH]c2ccccc12)C(=O)N[C@@H](CC(C)C)C(N)=O)C(C)C)C(C)C [RLWDIVRRWVGWL],MIC,[19],4.56 µM
same,MIC,[6],9.12 µM
same,MIC,[18],2.28 µM
same,MIC,[20],1.14 µM
CC(C)C[C@H](NC(=O)[C@H](CCCCN)NC(=O)[C@H](CCCN=C(N)N)NC(=O)[C@H](Cc1cnc[nH]1)NC(=O)[C@H](C)NC(=O)[C@H](CCCN=C(N)N)NC(=O)[C@H](Cc1cnc[nH]1)NC(=O)CNC(=O)[C@H](Cc1ccccc1)NC(=O)[C@H](CCCN=C(N)N)NC(=O)[C@H](CCCN=C(N)N)NC(=O)CNC(=O)[C@H](Cc1cnc[nH]1)NC(=O)[C@H](CCCN=C(N)N)NC(=O)CNC(=O)[C@@H](NC(=O)[C@H](CCCCN)NC(=O)[C@@H](N)CO)C(C)C)C(=O)O [SKVGRHGRRFGHRAHRKL],MIC,[21],≥ 100 µM
same,MIC,[22],≥ 100 µM
same,MIC,[23],≥ 100 µM
same,MIC,[24],≥ 100 µM
same,MIC,[25],≥ 100 µM
same,MIC,[26],≥ 100 µM
same,MIC,[27],≥ 100 µM
same,MIC,[28],≥ 100 µM
same,MIC,[29],≥ 100 µM
same,MIC,[30],≥ 100 µM
same,MIC,[31],≥ 100 µM
same,MIC,[32],≥ 100 µM
CC(C)C[C@H](NC(=O)[C@H](CCCCN)NC(=O)[C@H](CCCN=C(N)N)NC(=O)[C@H](Cc1cnc[nH]1)NC(=O)[C@H](C)NC(=O)[C@H](CCCN=C(N)N)NC(=O)[C@H](Cc1cnc[nH]1)NC(=O)CNC(=O)[C@H](Cc1ccccc1)NC(=O)[C@H](CCCN=C(N)N)NC(=O)[C@H](CCCN=C(N)N)NC(=O)[C@H](CC(C)C)NC(=O)[C@H](Cc1cnc[nH]1)NC(=O)[C@H](CCCN=C(N)N)NC(=O)CNC(=O)[C@@H](NC(=O)[C@H](CCCCN)NC(=O)[C@@H](N)CO)C(C)C)C(=O)O [SKVGRHLRRFGHRAHRKL],MIC,[21],≥ 100 µM
same,MIC,[22],9.38 µM
same,MIC,[23],18.8 µM
same,MIC,[24],≥ 100 µM
same,MIC,[25],18.8 µM
same,MIC,[26],≥ 100 µM
same,MIC,[27],≥ 100 µM
same,MIC,[28],18.8 µM
same,MIC,[29],≥ 100 µM
same,MIC,[30],≥ 100 µM
same,MIC,[31],12.5 µM
same,MIC,[32],≥ 100 µM
CC(C)C[C@H](NC(=O)[C@H](CCCCN)NC(=O)[C@H](CCCN=C(N)N)NC(=O)[C@H](Cc1cnc[nH]1)NC(=O)[C@H](C)NC(=O)[C@H](CCCN=C(N)N)NC(=O)[C@H](Cc1cnc[nH]1)NC(=O)[C@H](CC(C)C)NC(=O)[C@H](Cc1ccccc1)NC(=O)[C@H](CCCN=C(N)N)NC(=O)[C@H](CCCN=C(N)N)NC(=O)[C@H](CC(C)C)NC(=O)[C@H](Cc1cnc[nH]1)NC(=O)[C@H](CCCN=C(N)N)NC(=O)CNC(=O)[C@@H](NC(=O)[C@H](CCCCN)NC(=O)[C@@H](N)CO)C(C)C)C(=O)O [SKVGRHLRRFLHRAHRKL],MIC,[21],≥ 100 µM
same,MIC,[22],2.34 µM
same,MIC,[23],3.13 µM
same,MIC,[24],≥ 100 µM
same,MIC,[25],4.69 µM
same,MIC,[26],≥ 100 µM
same,MIC,[27],≥ 100 µM
same,MIC,[28],4.69 µM
same,MIC,[29],≥ 100 µM
same,MIC,[30],≥ 100 µM
same,MIC,[31],2.34 µM
same,MIC,[32],≥ 100 µM
CC[C@H](C)[C@H](NC(=O)[C@H](CCCN=C(N)N)NC(=O)[C@H](CCCN=C(N)N)NC(=O)[C@H](CC(C)C)NC(=O)[C@H](Cc1c[nH]c2ccccc12)NC(=O)[C@H](Cc1c[nH]c2ccccc12)NC(=O)[C@@H](N)Cc1c[nH]c2ccccc12)C(=O)N[C@@H](Cc1c[nH]c2ccccc12)C(N)=O [WWWLRRIW],MIC,[33],6.2 µM
same,MIC,[15],25 µM
same,MIC,[19],3.1 µM
same,MIC,[6],> 50 µM
same,MIC,[20],3.1 µM
CC[C@H](C)[C@H](NC(=O)[C@H](CCCCN)NC(=O)[C@H](CCCN=C(N)N)NC(=O)[C@H](CC(C)C)NC(=O)[C@H](Cc1c[nH]c2ccccc12)NC(=O)[C@H](Cc1c[nH]c2ccccc12)NC(=O)[C@H](Cc1c[nH]c2ccccc12)NC(=O)[C@@H](N)Cc1c[nH]c2ccccc12)C(N)=O [WWWWLRKI],MIC,[33],12.5 µM
same,MIC,[15],8.8 µM
same,MIC,[19],2.16 µM
